Values after ≈ are worked out from the molar mass of the structure shown.
How the values were obtained:
[1] = tested on: Bacillus subtilis; test: Antimicrobial activity against Bacillus subtilis 327 after 18 hrs by microbroth dilution method; type: functional
[2] = tested on: Staphylococcus aureus; test: Antimicrobial activity against methicillin-susceptible Staphylococcus aureus 375 after 18 hrs by microbroth dilution method; type: functional
[3] = tested on: Staphylococcus aureus; test: Antimicrobial activity against methicillin-resistant Staphylococcus aureus 310 after 18 hrs by microbroth dilution method; type: functional
[4] = tested on: Escherichia coli; test: Antimicrobial activity against Escherichia coli imp 389 after 18 hrs by microbroth dilution method; type: functional
[5] = tested on: Bacillus subtilis; test: Inhibition of DNA synthesis in Bacillus subtilis assessed as [3H]thymidine uptake at 8 ug/mL by LKB Betaplate scintillation counter relative to control; type: functional; parameters: scale not given: the % may be the effect or the level left
[6] = tested on: Bacillus subtilis; test: Inhibition of RNA synthesis in Bacillus subtilis assessed as incorporation of [3H]uridine at 4 ug/mL by LKB Betaplate scintillation counter relative to control; type: functional; parameters: scale not given: the % may be the effect or the level left
[7] = tested on: Bacillus subtilis; test: Inhibition of protein synthesis in Bacillus subtilis assessed as [3H]amino acid uptake at 4 ug/mL by LKB Betaplate scintillation counter relative to control; type: functional; parameters: scale not given: the % may be the effect or the level left
[8] = tested on: Bacillus subtilis; test: Inhibition of protein synthesis in Bacillus subtilis assessed as incorporation of [3H]amino acid at 4 ug/mL by LKB Betaplate scintillation counter relative to control; type: functional; parameters: scale not given: the % may be the effect or the level left
[9] = tested on: Bacillus subtilis; test: Inhibition of DNA synthesis in Bacillus subtilis assessed as [3H]thymidine uptake at 2 ug/mL by LKB Betaplate scintillation counter relative to control; type: functional; parameters: scale not given: the % may be the effect or the level left
[10] = tested on: Bacillus subtilis; test: Inhibition of DNA synthesis in Bacillus subtilis assessed as incorporation of [3H]thymidine at 2 ug/mL by LKB Betaplate scintillation counter relative to control; type: functional; parameters: scale not given: the % may be the effect or the level left
[11] = tested on: Staphylococcus aureus; test: Antimicrobial activity against Staphylococcus aureus infected in CD1 mouse administered subcutaneously after 30 mins infection measured after 7 days; type: functional; conditions: sc
[12] = tested on: Bacillus subtilis; test: Inhibition of RNA synthesis in Bacillus subtilis assessed as [3H]uridine uptake at 2 ug/mL by LKB Betaplate scintillation counter relative to control; type: functional; parameters: scale not given: the % may be the effect or the level left
[13] = tested on: Bacillus subtilis; test: Inhibition of RNA synthesis in Bacillus subtilis assessed as incorporation of [3H]uridine at 2 ug/mL by LKB Betaplate scintillation counter relative to control; type: functional; parameters: scale not given: the % may be the effect or the level left
[14] = tested on: Bacillus subtilis; test: Inhibition of protein synthesis in Bacillus subtilis assessed as [3H]amino acid uptake at 2 ug/mL by LKB Betaplate scintillation counter relative to control; type: functional; parameters: scale not given: the % may be the effect or the level left
[15] = tested on: Bacillus subtilis; test: Inhibition of protein synthesis in Bacillus subtilis assessed as incorporation of [3H]amino acid at 2 ug/mL by LKB Betaplate scintillation counter relative to control; type: functional; parameters: scale not given: the % may be the effect or the level left
[16] = tested on: Bacillus subtilis; test: Inhibition of DNA synthesis in Bacillus subtilis assessed as [3H]thymidine uptake at 1 ug/mL by LKB Betaplate scintillation counter relative to control; type: functional; parameters: scale not given: the % may be the effect or the level left
[17] = tested on: Bacillus subtilis; test: Inhibition of DNA synthesis in Bacillus subtilis assessed as incorporation of [3H]thymidine at 1 ug/mL by LKB Betaplate scintillation counter relative to control; type: functional; parameters: scale not given: the % may be the effect or the level left
[18] = tested on: Bacillus subtilis; test: Inhibition of RNA synthesis in Bacillus subtilis assessed as [3H]uridine uptake at 1 ug/mL by LKB Betaplate scintillation counter relative to control; type: functional; parameters: scale not given: the % may be the effect or the level left
[19] = tested on: Bacillus subtilis; test: Inhibition of RNA synthesis in Bacillus subtilis assessed as incorporation of [3H]uridine at 1 ug/mL by LKB Betaplate scintillation counter relative to control; type: functional; parameters: scale not given: the % may be the effect or the level left
[20] = tested on: Bacillus subtilis; test: Inhibition of protein synthesis in Bacillus subtilis assessed as [3H]amino acid uptake at 1 ug/mL by LKB Betaplate scintillation counter relative to control; type: functional; parameters: scale not given: the % may be the effect or the level left
[21] = tested on: Bacillus subtilis; test: Inhibition of protein synthesis in Bacillus subtilis assessed as incorporation of [3H]amino acid at 1 ug/mL by LKB Betaplate scintillation counter relative to control; type: functional; parameters: scale not given: the % may be the effect or the level left
[22] = Toxicity in human RBC assessed as hemolysis at 128 ug/ml after 2 hrs; type: cell-based, Erythrocyte; conditions: red blood cells (RBC), read-out: Activity
[23] = Toxicity in human RBC assessed as hemolysis at 64 ug/ml after 2 hrs; type: cell-based, Erythrocyte; conditions: red blood cells (RBC), read-out: Activity
[24] = Toxicity in human RBC assessed as hemolysis at 32 ug/ml after 2 hrs; type: cell-based, Erythrocyte; conditions: red blood cells (RBC), read-out: Activity
[25] = Toxicity in human RBC assessed as hemolysis at 16 ug/ml after 2 hrs; type: cell-based, Erythrocyte; conditions: red blood cells (RBC), read-out: Activity
[26] = Toxicity in human RBC assessed as hemolysis at 8 ug/ml after 2 hrs; type: cell-based, Erythrocyte; conditions: red blood cells (RBC), read-out: Activity
[27] = Toxicity in human RBC assessed as hemolysis at 4 ug/ml after 2 hrs; type: cell-based, Erythrocyte; conditions: red blood cells (RBC), read-out: Activity
[28] = Toxicity in human RBC assessed as hemolysis at 2 ug/ml after 2 hrs; type: cell-based, Erythrocyte; conditions: red blood cells (RBC), read-out: Activity
[29] = Toxicity in human RBC assessed as hemolysis at 1 ug/ml after 2 hrs; type: cell-based, Erythrocyte; conditions: red blood cells (RBC), read-out: Activity
[30] = Toxicity in human RBC assessed as hemolysis at 0.5 ug/ml after 2 hrs; type: cell-based, Erythrocyte; conditions: red blood cells (RBC), read-out: Activity
[31] = tested on: Bacillus subtilis; test: Inhibition of RNA synthesis in Bacillus subtilis assessed as [3H]uridine uptake at 4 ug/mL by LKB Betaplate scintillation counter relative to control; type: functional; parameters: scale not given: the % may be the effect or the level left
[32] = tested on: Bacillus subtilis; test: Inhibition of DNA synthesis in Bacillus subtilis assessed as incorporation of [3H]thymidine at 4 ug/mL by LKB Betaplate scintillation counter relative to control; type: functional; parameters: scale not given: the % may be the effect or the level left
[33] = tested on: Bacillus subtilis; test: Inhibition of DNA synthesis in Bacillus subtilis assessed as [3H]thymidine uptake at 4 ug/mL by LKB Betaplate scintillation counter relative to control; type: functional; parameters: scale not given: the % may be the effect or the level left
[34] = tested on: Bacillus subtilis; test: Inhibition of protein synthesis in Bacillus subtilis assessed as incorporation of [3H]amino acid at 8 ug/mL by LKB Betaplate scintillation counter relative to control; type: functional; parameters: scale not given: the % may be the effect or the level left
[35] = tested on: Bacillus subtilis; test: Inhibition of protein synthesis in Bacillus subtilis assessed as [3H]amino acid uptake at 8 ug/mL by LKB Betaplate scintillation counter relative to control; type: functional; parameters: scale not given: the % may be the effect or the level left
[36] = tested on: Bacillus subtilis; test: Inhibition of RNA synthesis in Bacillus subtilis assessed as incorporation of [3H]uridine at 8 ug/mL by LKB Betaplate scintillation counter relative to control; type: functional; parameters: scale not given: the % may be the effect or the level left
[37] = tested on: Bacillus subtilis; test: Inhibition of RNA synthesis in Bacillus subtilis assessed as [3H]uridine uptake at 8 ug/mL by LKB Betaplate scintillation counter relative to control; type: functional; parameters: scale not given: the % may be the effect or the level left
[38] = tested on: Bacillus subtilis; test: Inhibition of DNA synthesis in Bacillus subtilis assessed as incorporation of [3H]thymidine at 8 ug/mL by LKB Betaplate scintillation counter relative to control; type: functional; parameters: scale not given: the % may be the effect or the level left
[39] = tested on: Bacillus subtilis; test: Inhibition of DNA synthesis in Bacillus subtilis assessed as [3H]thymidine uptake at 0.25 ug/mL by LKB Betaplate scintillation counter relative to control; type: functional; parameters: scale not given: the % may be the effect or the level left
[40] = tested on: Bacillus subtilis; test: Inhibition of DNA synthesis in Bacillus subtilis assessed as incorporation of [3H]thymidine at 0.25 ug/mL by LKB Betaplate scintillation counter relative to control; type: functional; parameters: scale not given: the % may be the effect or the level left
[41] = tested on: Bacillus subtilis; test: Inhibition of RNA synthesis in Bacillus subtilis assessed as [3H]uridine uptake at 0.25 ug/mL by LKB Betaplate scintillation counter relative to control; type: functional; parameters: scale not given: the % may be the effect or the level left
[42] = tested on: Bacillus subtilis; test: Inhibition of RNA synthesis in Bacillus subtilis assessed as incorporation of [3H]uridine at 0.25 ug/mL by LKB Betaplate scintillation counter relative to control; type: functional; parameters: scale not given: the % may be the effect or the level left
[43] = tested on: Bacillus subtilis; test: Inhibition of protein synthesis in Bacillus subtilis assessed as [3H]amino acid uptake at 0.25 ug/mL by LKB Betaplate scintillation counter relative to control; type: functional; parameters: scale not given: the % may be the effect or the level left
[44] = tested on: Bacillus subtilis; test: Inhibition of protein synthesis in Bacillus subtilis assessed as incorporation of [3H]amino acid at 0.25 ug/mL by LKB Betaplate scintillation counter relative to control; type: functional; parameters: scale not given: the % may be the effect or the level left

SMILES: CC1(C)S[C@@H]2[C@H](NC(=O)Cc3ccccc3)C(=O)N2[C@H]1C(=O)O [PENICILLIN G]
- MIC [1]: 0.03 µg/mL (≈ 0.0897 µM)
- MIC [2]: 0.03 µg/mL (≈ 0.0897 µM)
- MIC [3]: 128 µg/mL (≈ 383 µM)
- MIC [4]: 1 µg/mL (≈ 2.99 µM)

SMILES: C=C[C@]1(C)CC=C2C(CC[C@@H]3[C@](C)(CO)CCC[C@@]23C)C1 (stereo not given in full)
- Activity [5]: 1%
- Activity [6]: 0%
- MIC [1]: 4 µg/mL (≈ 13.9 µM)
- MIC [2]: 2 µg/mL (≈ 6.93 µM)
- MIC [3]: 2 µg/mL (≈ 6.93 µM)
- MIC [4]: > 128 µg/mL
- Activity [7]: 1%
- Activity [8]: 2%
- Activity [9]: 2%
- Activity [10]: 2%
- ED50 [11]: > 64 mg/kg
- Activity [12]: 1%
- Activity [13]: 1%
- Activity [14]: 1%
- Activity [15]: 4%
- Activity [16]: 13%
- Activity [17]: 20%
- Activity [18]: 1%
- Activity [19]: 2%
- Activity [20]: 2%
- Activity [21]: 36%
- hemolysis at 2 h, 128 ug/ml [22]: 88.1%
- hemolysis at 2 h, 64 ug/ml [23]: 80.2%
- hemolysis at 2 h, 32 ug/ml [24]: 71.7%
- hemolysis at 2 h, 16 ug/ml [25]: 14.8%
- hemolysis at 2 h, 8 ug/ml [26]: 3.32%
- hemolysis at 2 h, 4 ug/ml [27]: 0.3%
- hemolysis at 2 h, 2 ug/ml [28]: 0.45%
- hemolysis at 2 h, 1 ug/ml [29]: 0.08%
- hemolysis at 2 h, 0.5 ug/ml [30]: 0.3%
- Activity [31]: 0%
- Activity [32]: 1%
- Activity [33]: 1%
- Activity [34]: 2%
- Activity [35]: 1%
- Activity [36]: 0%
- Activity [37]: 0%
- Activity [38]: 1%

SMILES: O=C(N[C@H](CO)[C@H](O)c1ccc([N+](=O)[O-])cc1)C(Cl)Cl [CHLORAMPHENICOL]
- Activity [5]: 74%
- Activity [34]: 10%
- Activity [35]: 83%
- Activity [36]: 166%
- Activity [37]: 141%
- Activity [38]: 80%

SMILES: CO[C@H]1/C=C/O[C@@]2(C)Oc3c(C)c(O)c4c(O)c(c(/C=N/N5CCN(C)CC5)c(O)c4c3C2=O)NC(=O)/C(C)=C\C=C\[C@H](C)[C@H](O)[C@@H](C)[C@@H](O)[C@@H](C)[C@H](OC(C)=O)[C@@H]1C [RIFAMPIN]
- Activity [39]: 94%
- Activity [40]: 108%
- Activity [41]: 143%
- Activity [42]: 29%
- Activity [43]: 90%
- Activity [44]: 25%

SMILES: C[C@@H]1[C@H](O)[C@@H](C)/C=C/C=C/C=C/C=C/C=C/C=C/C=C/[C@H](O[C@@H]2O[C@H](C)[C@@H](O)[C@H](N)[C@@H]2O)C[C@@H]2O[C@](O)(C[C@@H](O)C[C@@H](O)[C@H](O)CC[C@@H](O)C[C@@H](O)CC(=O)O[C@H]1C)C[C@H](O)[C@H]2C(=O)O [AMPHOTERICIN B]
- hemolysis at 2 h, 16 ug/ml [25]: 118%
- hemolysis at 2 h, 8 ug/ml [26]: 96.9%
- hemolysis at 2 h, 4 ug/ml [27]: 74.6%
- hemolysis at 2 h, 2 ug/ml [28]: 27.5%
- hemolysis at 2 h, 1 ug/ml [29]: 9.7%
- hemolysis at 2 h, 0.5 ug/ml [30]: 0%

SMILES: CC(C)c1ccc2c(c1)CC[C@H]1[C@](C)(CO)CCC[C@]21C [POMIFERIN A]
- MIC [1]: 8 µg/mL (≈ 27.9 µM)
- MIC [2]: 4 µg/mL (≈ 14 µM)
- MIC [3]: 4 µg/mL (≈ 14 µM)
- MIC [4]: > 128 µg/mL

SMILES: O=C(O)c1cn(C2CC2)c2cc(N3CCNCC3)c(F)cc2c1=O [CIPROFLOXACIN]
- Activity [39]: 73%
- Activity [40]: 61%
- Activity [41]: 100%
- Activity [42]: 94%
- Activity [43]: 104%
- Activity [44]: 94%

From ChEMBL document CHEMBL1159340, “Antibacterial diterpenes from Calceolaria pinifolia” (J Nat Prod, 2003)
